Source: ChEMBL document CHEMBL3885881, “DrugMatrix”

Species: Rattus norvegicus
Experiment: DrugMatrix - Regimen: Daily Repeat
Format: toxicity, organism-based, Sprague-Dawley
Parameters: regimen Daily Repeat, gender Male, age 6-8 weeks
Settings: in vivo, iv, vehicle 100 % SALINE; for ABSOLUTE BASOPHIL / ABSOLUTE EOSINOPHIL / ABSOLUTE LYMPHOCYTE / ABSOLUTE MONOCYTE / ABSOLUTE SEGMENTED NEUTROPHIL / BASOPHIL / EOSINOPHIL / ERYTHROCYTE COUNT / HEMATOCRIT / LEUKOCYTE COUNT / LYMPHOCYTE / MEAN CORPUSCULAR HEMOGLOBIN / MEAN CORPUSCULAR HEMOGLOBIN CONCENTRATION / MEAN CORPUSCULAR VOLUME / MONOCYTE / NEUTROPHIL / NUCLEATED RED BLOOD CELLS / PLATELET COUNT / HEMOGLOBIN: tissue Blood
[1] = 0 mg/kg, 72 h, dose level Control, time 3 day
[2] = 0 mg/kg, 72 h, tissue Plasma, dose level Control, time 3 day
[3] = 0 mg/kg, 120 h, dose level Control, time 5 day
[4] = 0 mg/kg, 120 h, tissue Plasma, dose level Control, time 5 day
[5] = 8 mg/kg, 72 h, dose level High, time 3 day
[6] = 8 mg/kg, 72 h, tissue Plasma, dose level High, time 3 day
[7] = 8 mg/kg, 120 h, dose level High, time 5 day
[8] = 8 mg/kg, 120 h, tissue Plasma, dose level High, time 5 day

Sequence: OXALIPLATIN
- ABSOLUTE BASOPHIL [1]: 0 CELLS/uL
- ABSOLUTE EOSINOPHIL [1]: 0 CELLS/uL
- ABSOLUTE LYMPHOCYTE [1]: 7637.67 CELLS/uL
- ABSOLUTE MONOCYTE [1]: 67.83 CELLS/uL
- ABSOLUTE SEGMENTED NEUTROPHIL [1]: 661.17 CELLS/uL
- BASOPHIL [1]: 0%
- EOSINOPHIL [1]: 0%
- ERYTHROCYTE COUNT [1]: 5.38 x10E6/uL
- HEMATOCRIT [1]: 33.67%
- LEUKOCYTE COUNT [1]: 8.37 x10E3/uL
- LYMPHOCYTE [1]: 91.17%
- MEAN CORPUSCULAR HEMOGLOBIN [1]: 23.95 pg
- MEAN CORPUSCULAR HEMOGLOBIN CONCENTRATION [1]: 38.23 G/DL
- MEAN CORPUSCULAR VOLUME [1]: 62.6 fL
- MONOCYTE [1]: 0.83%
- NEUTROPHIL [1]: 8%
- NUCLEATED RED BLOOD CELLS [1]: 0.17 /100WBC
- PLATELET COUNT [1]: 865 x10E3/uL
- ALANINE AMINOTRANSFERASE [2]: 51.67 u/L
- ALKALINE PHOSPHATASE [2]: 351.17 u/L
- ASPARTATE AMINOTRANSFERASE [2]: 82.33 u/L
- BLOOD UREA NITROGEN [2]: 15.17 mg/dL
- CARBON DIOXIDE [2]: 34.5 mmol/L
- CHLORIDE [2]: 100 MEQ/L
- CHOLESTEROL [2]: 80.33 mg/dL
- CREATINE PHOSPHOKINASE [2]: 316.5 u/L
- CREATININE [2]: 0.17 mg/dL
- LACTATE DEHYDROGENASE [2]: 105.67 u/L
- LIPASE [2]: 9.5 u/L
- PHOSPHORUS [2]: 10.87 mg/dL
- POTASSIUM [2]: 5.47 MEQ/L
- TOTAL BILIRUBIN [2]: 0.2 mg/dL
- TOTAL PROTEIN [2]: 5.83 G/DL
- URIC ACID [2]: 0.83 mg/dL
- ABSOLUTE BASOPHIL [3]: 0 CELLS/uL
- ABSOLUTE EOSINOPHIL [3]: 0 CELLS/uL
- ABSOLUTE LYMPHOCYTE [3]: 6333.5 CELLS/uL
- ABSOLUTE MONOCYTE [3]: 38.83 CELLS/uL
- ABSOLUTE SEGMENTED NEUTROPHIL [3]: 661 CELLS/uL
- BASOPHIL [3]: 0%
- EOSINOPHIL [3]: 0%
- ERYTHROCYTE COUNT [3]: 5.44 x10E6/uL
- HEMATOCRIT [3]: 34.17%
- HEMOGLOBIN [3]: 13.22 G/DL
- LEUKOCYTE COUNT [3]: 7.03 x10E3/uL
- LYMPHOCYTE [3]: 90.17%
- MEAN CORPUSCULAR HEMOGLOBIN [3]: 24.38 pg
- MEAN CORPUSCULAR HEMOGLOBIN CONCENTRATION [3]: 38.7 G/DL
- MEAN CORPUSCULAR VOLUME [3]: 62.95 fL
- MONOCYTE [3]: 0.5%
- NUCLEATED RED BLOOD CELLS [3]: 0 /100WBC
- PLATELET COUNT [3]: 924.33 x10E3/uL
- ALANINE AMINOTRANSFERASE [4]: 52.5 u/L
- ALKALINE PHOSPHATASE [4]: 364.83 u/L
- ASPARTATE AMINOTRANSFERASE [4]: 82.5 u/L
- BLOOD UREA NITROGEN [4]: 17 mg/dL
- CARBON DIOXIDE [4]: 32.33 mmol/L
- CHLORIDE [4]: 99.6 MEQ/L
- CHOLESTEROL [4]: 75.83 mg/dL
- CREATINE PHOSPHOKINASE [4]: 419 u/L
- CREATININE [4]: 0.21 mg/dL
- GLUCOSE [4]: 155 mg/dL
- LIPASE [4]: 11.33 u/L
- PHOSPHORUS [4]: 10.32 mg/dL
- POTASSIUM [4]: 5.37 MEQ/L
- TOTAL BILIRUBIN [4]: 0.18 mg/dL
- TOTAL PROTEIN [4]: 5.98 G/DL
- URIC ACID [4]: 0.62 mg/dL
- ABSOLUTE BASOPHIL [5]: 0 CELLS/uL
- ABSOLUTE EOSINOPHIL [5]: 0 CELLS/uL
- ABSOLUTE LYMPHOCYTE [5]: 4377.33 CELLS/uL
- ABSOLUTE MONOCYTE [5]: 16.67 CELLS/uL
- ABSOLUTE SEGMENTED NEUTROPHIL [5]: 339.33 CELLS/uL
- BASOPHIL [5]: 0%
- EOSINOPHIL [5]: 0%
- ERYTHROCYTE COUNT [5]: 5.41 x10E6/uL
- HEMATOCRIT [5]: 33.23%
- HEMOGLOBIN [5]: 12.83 G/DL
- LEUKOCYTE COUNT [5]: 4.73 x10E3/uL
- LYMPHOCYTE [5]: 92.67%
- MEAN CORPUSCULAR HEMOGLOBIN CONCENTRATION [5]: 38.63 G/DL
- MONOCYTE [5]: 0.33%
- NEUTROPHIL [5]: 7%
- NUCLEATED RED BLOOD CELLS [5]: 0 /100WBC
- PLATELET COUNT [5]: 1068.33 x10E3/uL
- ALANINE AMINOTRANSFERASE [6]: 44.67 u/L
- ALBUMIN [6]: 4.3 G/DL
- ALKALINE PHOSPHATASE [6]: 356.33 u/L
- ASPARTATE AMINOTRANSFERASE [6]: 77.33 u/L
- BLOOD UREA NITROGEN [6]: 16.67 mg/dL
- CARBON DIOXIDE [6]: 34.33 mmol/L
- CHLORIDE [6]: 99 MEQ/L
- CHOLESTEROL [6]: 76 mg/dL
- CREATINE PHOSPHOKINASE [6]: 301 u/L
- CREATININE [6]: 0.12 mg/dL
- LACTATE DEHYDROGENASE [6]: 153.67 u/L
- POTASSIUM [6]: 5.69 MEQ/L
- TOTAL BILIRUBIN [6]: 0.2 mg/dL
- TOTAL PROTEIN [6]: 6.2 G/DL
- URIC ACID [6]: 0.67 mg/dL
- ABSOLUTE BASOPHIL [7]: 0 CELLS/uL
- ABSOLUTE EOSINOPHIL [7]: 0 CELLS/uL
- ABSOLUTE LYMPHOCYTE [7]: 3427.33 CELLS/uL
- ABSOLUTE MONOCYTE [7]: 20 CELLS/uL
- ABSOLUTE SEGMENTED NEUTROPHIL [7]: 186 CELLS/uL
- BASOPHIL [7]: 0%
- EOSINOPHIL [7]: 0%
- ERYTHROCYTE COUNT [7]: 5.56 x10E6/uL
- HEMATOCRIT [7]: 33.2%
- HEMOGLOBIN [7]: 12.67 G/DL
- LEUKOCYTE COUNT [7]: 3.63 x10E3/uL
- LYMPHOCYTE [7]: 93.33%
- MEAN CORPUSCULAR HEMOGLOBIN [7]: 22.77 pg
- MEAN CORPUSCULAR HEMOGLOBIN CONCENTRATION [7]: 38.17 G/DL
- MONOCYTE [7]: 0.67%
- NEUTROPHIL [7]: 6%
- NUCLEATED RED BLOOD CELLS [7]: 0.33 /100WBC
- PLATELET COUNT [7]: 976 x10E3/uL
- ALANINE AMINOTRANSFERASE [8]: 50 u/L
- ALKALINE PHOSPHATASE [8]: 285.67 u/L
- ASPARTATE AMINOTRANSFERASE [8]: 73.67 u/L
- BLOOD UREA NITROGEN [8]: 16.67 mg/dL
- CARBON DIOXIDE [8]: 33.67 mmol/L
- CHLORIDE [8]: 98 MEQ/L
- CHOLESTEROL [8]: 68.33 mg/dL
- CREATINE PHOSPHOKINASE [8]: 268.33 u/L
- CREATININE [8]: 0.16 mg/dL
- GLUCOSE [8]: 141 mg/dL
- LACTATE DEHYDROGENASE [8]: 86 u/L
- LIPASE [8]: 9 u/L
- PHOSPHORUS [8]: 9 mg/dL
- POTASSIUM [8]: 5.38 MEQ/L
- TOTAL BILIRUBIN [8]: 0.13 mg/dL
- TOTAL PROTEIN [8]: 6.33 G/DL
- URIC ACID [8]: 0.6 mg/dL
